IC50 data for one compound are collected here from paper PMC11007702 (ACS Omega, 2024).

Common to all, as to format: biochemical
The target in one experiment is EGFR^T790M (Homo sapiens, UniProt P00533, T790M). As to the kind of experiment: in vitro EGFR kinase inhibition assay.
The next experiment deals with VEGFR-2 (Homo sapiens, UniProt P35968). As to the kind of experiment: in vitro kinase inhibition.
The target in a further experiment is EGFR^WT (Homo sapiens, UniProt P00533). As to the kind of experiment: in vitro EGFR kinase inhibition assay.
EGFR^WT, sequence (P00533 25-1210): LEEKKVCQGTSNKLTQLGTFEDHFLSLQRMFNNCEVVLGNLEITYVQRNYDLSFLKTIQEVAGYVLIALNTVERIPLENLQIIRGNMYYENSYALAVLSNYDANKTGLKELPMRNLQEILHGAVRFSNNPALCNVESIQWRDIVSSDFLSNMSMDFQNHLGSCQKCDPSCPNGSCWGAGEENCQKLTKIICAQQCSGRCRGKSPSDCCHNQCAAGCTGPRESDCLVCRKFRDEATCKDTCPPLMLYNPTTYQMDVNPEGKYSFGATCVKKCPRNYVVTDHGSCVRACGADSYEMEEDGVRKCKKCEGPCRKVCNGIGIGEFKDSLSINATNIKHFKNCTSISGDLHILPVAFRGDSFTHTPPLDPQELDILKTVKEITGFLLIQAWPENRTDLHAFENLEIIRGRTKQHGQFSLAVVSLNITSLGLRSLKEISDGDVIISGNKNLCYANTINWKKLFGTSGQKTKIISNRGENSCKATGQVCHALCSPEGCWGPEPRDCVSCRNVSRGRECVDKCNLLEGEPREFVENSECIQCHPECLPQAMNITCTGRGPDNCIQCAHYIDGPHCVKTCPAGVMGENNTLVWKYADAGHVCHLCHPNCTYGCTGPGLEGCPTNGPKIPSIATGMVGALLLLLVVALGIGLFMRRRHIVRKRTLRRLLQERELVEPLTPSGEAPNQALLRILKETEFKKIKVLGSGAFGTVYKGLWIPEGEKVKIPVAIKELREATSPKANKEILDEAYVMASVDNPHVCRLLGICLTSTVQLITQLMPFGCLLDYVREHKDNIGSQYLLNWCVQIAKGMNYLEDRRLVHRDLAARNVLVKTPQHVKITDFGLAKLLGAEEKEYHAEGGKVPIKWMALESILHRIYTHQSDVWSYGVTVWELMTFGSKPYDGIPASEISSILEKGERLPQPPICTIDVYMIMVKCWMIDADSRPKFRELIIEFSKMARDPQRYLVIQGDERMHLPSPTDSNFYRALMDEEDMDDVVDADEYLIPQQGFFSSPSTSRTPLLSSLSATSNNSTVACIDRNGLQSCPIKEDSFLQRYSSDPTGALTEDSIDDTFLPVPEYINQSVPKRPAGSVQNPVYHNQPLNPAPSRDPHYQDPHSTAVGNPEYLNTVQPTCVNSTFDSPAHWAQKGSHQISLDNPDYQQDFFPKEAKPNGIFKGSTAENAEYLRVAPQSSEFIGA

VEGFR-2, sequence (P35968 20-1356): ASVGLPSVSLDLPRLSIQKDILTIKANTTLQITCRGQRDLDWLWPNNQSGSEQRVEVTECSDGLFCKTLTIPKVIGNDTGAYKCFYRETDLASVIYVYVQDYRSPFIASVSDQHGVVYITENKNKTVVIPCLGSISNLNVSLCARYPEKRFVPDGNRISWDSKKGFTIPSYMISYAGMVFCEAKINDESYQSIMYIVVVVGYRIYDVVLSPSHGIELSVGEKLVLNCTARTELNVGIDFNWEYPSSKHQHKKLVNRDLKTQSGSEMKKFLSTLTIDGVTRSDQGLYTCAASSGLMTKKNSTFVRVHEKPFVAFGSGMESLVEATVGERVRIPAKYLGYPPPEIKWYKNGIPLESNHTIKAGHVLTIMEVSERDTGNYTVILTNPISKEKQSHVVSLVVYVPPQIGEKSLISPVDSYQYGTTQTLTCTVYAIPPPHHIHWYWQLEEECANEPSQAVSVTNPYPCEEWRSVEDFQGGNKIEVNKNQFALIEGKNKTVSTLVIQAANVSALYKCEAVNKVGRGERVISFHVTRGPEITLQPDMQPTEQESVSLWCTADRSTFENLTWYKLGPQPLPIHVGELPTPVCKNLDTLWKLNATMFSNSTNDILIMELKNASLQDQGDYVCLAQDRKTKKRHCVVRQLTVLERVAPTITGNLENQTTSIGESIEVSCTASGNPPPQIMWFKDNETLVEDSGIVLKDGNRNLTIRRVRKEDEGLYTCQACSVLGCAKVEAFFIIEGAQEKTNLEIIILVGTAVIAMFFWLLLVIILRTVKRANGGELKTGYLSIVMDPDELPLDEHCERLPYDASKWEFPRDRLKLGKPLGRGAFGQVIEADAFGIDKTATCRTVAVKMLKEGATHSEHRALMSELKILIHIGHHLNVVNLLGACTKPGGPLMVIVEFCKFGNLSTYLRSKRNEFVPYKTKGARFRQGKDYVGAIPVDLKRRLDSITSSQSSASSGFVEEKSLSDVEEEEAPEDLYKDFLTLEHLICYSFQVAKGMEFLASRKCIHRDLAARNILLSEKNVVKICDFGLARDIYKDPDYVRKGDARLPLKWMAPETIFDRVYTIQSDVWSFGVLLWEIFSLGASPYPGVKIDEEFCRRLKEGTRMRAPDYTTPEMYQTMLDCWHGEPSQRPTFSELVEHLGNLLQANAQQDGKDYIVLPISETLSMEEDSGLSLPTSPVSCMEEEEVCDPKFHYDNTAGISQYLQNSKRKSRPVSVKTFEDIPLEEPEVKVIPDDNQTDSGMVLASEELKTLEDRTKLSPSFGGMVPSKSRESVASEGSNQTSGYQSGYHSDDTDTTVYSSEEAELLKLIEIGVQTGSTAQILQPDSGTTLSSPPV
EGFR^T790M, sequence (P00533 669-1210 T790M limits assumed): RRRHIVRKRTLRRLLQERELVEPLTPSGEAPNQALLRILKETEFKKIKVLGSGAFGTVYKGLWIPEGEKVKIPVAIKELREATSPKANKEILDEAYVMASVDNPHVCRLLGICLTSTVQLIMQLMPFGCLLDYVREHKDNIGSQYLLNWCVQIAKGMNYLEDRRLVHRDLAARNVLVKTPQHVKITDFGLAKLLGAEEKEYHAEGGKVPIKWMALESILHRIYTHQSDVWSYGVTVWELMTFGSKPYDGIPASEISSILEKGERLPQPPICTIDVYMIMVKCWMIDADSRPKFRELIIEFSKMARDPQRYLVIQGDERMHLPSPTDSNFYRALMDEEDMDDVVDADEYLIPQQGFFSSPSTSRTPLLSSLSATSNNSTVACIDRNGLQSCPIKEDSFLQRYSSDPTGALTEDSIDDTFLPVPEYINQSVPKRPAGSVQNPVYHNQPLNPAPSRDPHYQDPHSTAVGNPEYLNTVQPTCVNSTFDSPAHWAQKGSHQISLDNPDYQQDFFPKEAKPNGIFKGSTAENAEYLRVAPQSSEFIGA

In the case of `Cc1ccc(NC(=O)Cn2c(=O)c3c(ncn3C)n(C)c2=O)cc1` [T-1-PMPA, 2-(3,7-Dimethyl-2,6-dioxo-2,3,6,7-tetrahydro-1H-purin-1-yl)-N-(p-tolyl)acetamide], the IC50 against EGFR^T790M was found to be 562 nM; against VEGFR-2, 2070 nM; against EGFR^WT it was 86 nM.

Usually IC50 stands for the concentration at which inhibition is half-maximal. A higher IC50 goes with weaker potency in that assay.
